What was measured:
hα7-wt nAChR [1] = target: T1, hα7-wt nAChR (Homo sapiens, UniProt P36544); test: Ca2+ flux imaging (FDSS), PAM activity with choline; type: cell-based; settings: hα7-wt nAChR-expressing GH4C1 cells; potentiation of choline 100 μM; compound 0.01 μM to 30 μM
T1 construct: expressed in transfected cells
Description: Ca^2+ Flux Imaging (FDSS) […]
PAM activity was detected in real time by applying the compound to be tested to the loaded cells along with a α7 nicotinic receptor agonist during constant monitoring of the cellular calcium mobilization by fluorescence in a FDSS. […]
A control response to choline was calculated on each plate from the difference in peak in fluorescence in wells receiving either choline or assay buffer alone. […]
EC50 values (potency), maximal effect (% efficacy), and Hill slopes were estimated by fitting the sigmoidal equation to the data using GraphPad Prism (GraphPad Software, Inc., San Diego, Calif.). An EC50 (or pEC50) was determined as a concentration relating to half the maximal effect, when a clear sigmoidal curve with top plateau was obtained.

hα7-wt nAChR [2] = target: T1, hα7-wt nAChR; test: Whole-cell voltage-clamp recording, PAM activity with choline; type: cell-based; design: key: Type 1 compounds enhance the effect size of the current elicited by 1 mM choline but minimally alter the kinetics of the receptor.; Type 2 compounds enhance the effect size of the current elicited by 1 mM choline while reducing the rate and/or the extent of desensitization.; Type 3 compounds enhance the effect size of the current elicited by 1 mM choline. When tested at higher concentrations up to 10 μM they completely inhibit desensitization; Type 4 compounds allow for an initial desensitization of the receptor followed by a re-opening of the receptor during agonist application; settings: qualitative kinetic properties, 1 mM choline, GH4C1 cells
Description: The compounds of the present invention are classified as type 1-4, based on qualitative kinetic properties, as determined by whole-cell voltage-clamp recordings. This classification is based on the effect of an α7 PAM compound, as described hereinbefore, on the signal elicited by an agonist application. In particular, said agonist is choline at a concentration of 1 mM. In a preferred experimental setting, said α7 PAM compound and choline are simultaneously applied to the cell, as described hereinafter. Desensitization as described hereinafter is the closure of the receptor upon activation during the application of the agonist in whole-cell voltage-clamp electrophysiology measurements seen as the reduction of the […] current after initial activation by the agonist.
The definition of the PAM types 1-4 is described hereinafter: • Type 1 compounds enhance the effect size of the current elicited by 1 mM choline but minimally alter the kinetics of the receptor. In particular, the rate and the extent of desensitization, elicited by the agonist, is not affected. […]
The compound of the present invention also has a potentiating effect on the response to choline when measured by whole-cell voltage clamp electrophysiology in GH4C1 cells stably over-expressing the human wild-type α7 receptor, as described hereinafter. […]

T1 sequence (P36544 23-502): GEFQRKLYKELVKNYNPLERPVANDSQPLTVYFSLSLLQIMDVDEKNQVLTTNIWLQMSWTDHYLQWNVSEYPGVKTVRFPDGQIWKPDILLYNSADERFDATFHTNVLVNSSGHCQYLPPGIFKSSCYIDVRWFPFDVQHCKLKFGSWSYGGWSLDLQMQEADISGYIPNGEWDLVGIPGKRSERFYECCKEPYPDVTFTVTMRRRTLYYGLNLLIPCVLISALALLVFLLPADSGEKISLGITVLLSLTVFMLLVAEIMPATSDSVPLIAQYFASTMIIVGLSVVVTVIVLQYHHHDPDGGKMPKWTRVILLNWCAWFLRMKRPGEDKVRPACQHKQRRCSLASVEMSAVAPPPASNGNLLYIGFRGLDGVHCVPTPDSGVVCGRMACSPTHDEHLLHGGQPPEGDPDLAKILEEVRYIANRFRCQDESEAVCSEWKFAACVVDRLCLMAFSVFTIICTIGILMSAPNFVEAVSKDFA

## CCNC(=O)Cn1nc(Nc2ccc3c(c2)OC(F)(F)O3)nc1-c1cc(C)nc(C)c1 [Compound E1, 2-[3-(2,2-Difluoro-benzo[1,3]dioxol-5-ylamino)-5-(2,6-dimethyl-pyridin-4-yl)-[1,2,4]-triazol-1-yl]-N-ethyl-acetamide]
hα7-wt nAChR [1]
  EC50: 309 nM
hα7-wt nAChR [2]
  PAM_type: 2
other
  melting point: 242.28 °C

— US8404851B2, “1,3,5-trisubstituted triazole derivative” (Janssen Pharmaceutica NV, priority 2007, dated 2013)
